# Measurements as given in ChEMBL document CHEMBL3045406, “Enantioselective Relieving Activity of α-Methylbenzylphenylureas toward Bensulfuron-methyl Injury to Rice (Oryza sativa)” (Biosci Biotechnol Biochem, 1999).
# Experiments:
# Oryza sativa [1] = experiment: Relieving activity against bensulfuron-methyl induced injury to Oryza sativa (rice) assessed as growth rate at 0.1 uM (Rbv = 46 to 53%); assay type: functional
# Oryza sativa [2] = experiment: Effect on Oryza sativa (rice) assessed as growth rate at 0.1 uM relative to control; assay type: organism-based; details: in vivo
# Oryza sativa [3] = experiment: Relieving activity against bensulfuron-methyl induced injury to Oryza sativa (rice) assessed as growth rate at 1 uM (Rbv = 46 to 53%); assay type: functional
# Oryza sativa [4] = experiment: Relieving activity against bensulfuron-methyl induced injury to Oryza sativa (rice) assessed as growth rate at 10 uM (Rbv = 46 to 53%); assay type: functional
# Oryza sativa [5] = experiment: Safener indices, ratio of compound effect of Oryza sativa (rice) growth rate to relieving activity against bensulfuron-methyl induced injury to Oryza sativa growth rate at 10 uM
# Oryza sativa [6] = experiment: Effect on Oryza sativa (rice) assessed as growth rate at 1 uM relative to control; assay type: organism-based; details: in vivo
# [7] = Hydrophobicity, log K of the compound; assay type: physicochemical; details: octanol/water
# Oryza sativa [8] = experiment: Safener indices, ratio of compound effect of Oryza sativa (rice) growth rate to relieving activity against bensulfuron-methyl induced injury to Oryza sativa growth rate at 1 uM
# Oryza sativa [9] = experiment: Safener indices, ratio of compound effect of Oryza sativa (rice) growth rate to relieving activity against bensulfuron-methyl induced injury to Oryza sativa growth rate at 0.1 uM
# Oryza sativa [10] = experiment: Effect on Oryza sativa (rice) assessed as growth rate at 10 uM relative to control; assay type: organism-based; details: in vivo
Activity (Oryza sativa [2]),Activity (Oryza sativa [6]),log K [7],Activity (Oryza sativa [10]),SMILES,Activity (Oryza sativa [1]),Activity (Oryza sativa [3]),Activity (Oryza sativa [4]),Ratio (Oryza sativa [5]),Ratio (Oryza sativa [8]),Ratio (Oryza sativa [9])
100%,100%,0.646,99%,C[C@@H](NC(=O)Nc1cccc(Cl)c1Cl)c1ccccc1,59%,80%,89%,78,58,14
100%,100%,0.646,101%,C[C@H](NC(=O)Nc1cccc(Cl)c1Cl)c1ccccc1,89%,96%,98%,96,91,76
98%,96%,0.61,93%,C[C@@H](NC(=O)Nc1ccc(Cl)c(Cl)c1)c1ccccc1,57%,66%,77%,56,34,15
98%,97%,0.61,99%,C[C@H](NC(=O)Nc1ccc(Cl)c(Cl)c1)c1ccccc1,70%,78%,90%,81,57,39
101%,99%,0.688,100%,C[C@@H](NC(=O)Nc1ccc(Cl)cc1Cl)c1ccccc1,61%,65%,75%,47,29,20
100%,100%,0.688,99%,C[C@H](NC(=O)Nc1ccc(Cl)cc1Cl)c1ccccc1,68%,80%,87%,73,59,33
99%,100%,0.704,101%,C[C@@H](NC(=O)Nc1cc(Cl)ccc1Cl)c1ccccc1,64%,68%,77%,52,37,26
100%,99%,0.704,100%,C[C@H](NC(=O)Nc1cc(Cl)ccc1Cl)c1ccccc1,79%,85%,91%,82,69,56
99%,99%,0.703,99%,C[C@@H](NC(=O)Nc1cc(Cl)cc(Cl)c1)c1ccccc1,58%,63%,69%,37,25,14
99%,100%,0.703,99%,C[C@H](NC(=O)Nc1cc(Cl)cc(Cl)c1)c1ccccc1,74%,80%,88%,76,59,46

# More lines, now with the values behind:
SMILES,Activity (Oryza sativa [2]),Activity (Oryza sativa [6]),log K [7],Activity (Oryza sativa [10]),Activity (Oryza sativa [1]),Activity (Oryza sativa [3]),Activity (Oryza sativa [4]),Ratio (Oryza sativa [5]),Ratio (Oryza sativa [8]),Ratio (Oryza sativa [9])
C[C@@H](NC(=O)Nc1cc(F)ccc1F)c1ccccc1,100%,100%,0.464,92%,54%,67%,77%,57,34,7
C[C@H](NC(=O)Nc1cc(F)ccc1F)c1ccccc1,100%,98%,0.464,99%,74%,89%,96%,92,77,47
C[C@@H](NC(=O)Nc1c(F)cccc1F)c1ccccc1,100%,100%,0.238,98%,51%,54%,71%,42,8,2
C[C@H](NC(=O)Nc1c(F)cccc1F)c1ccccc1,100%,99%,0.238,99%,53%,61%,81%,62,22,6
C[C@@H](NC(=O)Nc1ccc(F)c(F)c1)c1ccccc1,99%,99%,0.398,96%,52%,60%,73%,47,21,4
C[C@H](NC(=O)Nc1ccc(F)c(F)c1)c1ccccc1,99%,100%,0.398,98%,57%,70%,82%,64,41,14
C[C@@H](NC(=O)Nc1cc(F)cc(F)c1)c1ccccc1,98%,98%,0.452,96%,54%,59%,65%,33,20,10
C[C@H](NC(=O)Nc1cc(F)cc(F)c1)c1ccccc1,99%,99%,0.452,99%,64%,79%,93%,85,58,30
C[C@@H](NC(=O)Nc1cccc(C(F)(F)F)c1F)c1ccccc1,99%,99%,0.624,98%,68%,90%,96%,92,79,33
C[C@H](NC(=O)Nc1cccc(C(F)(F)F)c1F)c1ccccc1,99%,98%,0.624,100%,76%,92%,98%,96,84,51
C[C@@H](NC(=O)Nc1cc(C(F)(F)F)ccc1F)c1ccccc1,87%,70%,0.64,60%,53%,55%,59%,40,28,13
C[C@H](NC(=O)Nc1cc(C(F)(F)F)ccc1F)c1ccccc1,98%,89%,0.64,87%,64%,79%,84%,70,59,26
Cc1cc(F)ccc1NC(=O)N[C@H](C)c1ccccc1,100%,100%,0.356,94%,54%,57%,74%,48,9,3
Cc1cc(F)ccc1NC(=O)N[C@@H](C)c1ccccc1,99%,98%,0.356,96%,56%,71%,81%,62,40,9
Cc1ccc(NC(=O)N[C@H](C)c2ccccc2)c(F)c1,98%,99%,0.459,99%,57%,79%,89%,78,55,11
Cc1ccc(NC(=O)N[C@@H](C)c2ccccc2)c(F)c1,100%,99%,0.459,100%,77%,87%,95%,89,72,53
C[C@@H](NC(=O)Nc1c(Cl)cccc1Cl)c1ccccc1,100%,99%,0.326,100%,57%,61%,61%,21,19,12
C[C@H](NC(=O)Nc1c(Cl)cccc1Cl)c1ccccc1,100%,99%,0.326,99%,62%,69%,74%,47,36,21
